According to PubChem BioAssay AID1259407 (Chemical Carcinogenesis Research Information System (CCRIS), 2018):
The source made the active and inactive calls. No rule for the calls is given here.

Tested on: CCRIS mutagenicity, Ames/micronucleus/aberration tests
Test: CCRIS mutagenicity studies
[1] = Test System: AMES SALMONELLA TYPHIMURIUM, Strain/Indicator: TA98, Metabolic Activation: NONE, Method: STANDARD PLATE
[2] = Test System: AMES SALMONELLA TYPHIMURIUM, Strain/Indicator: TA100, Metabolic Activation: NONE, Method: STANDARD PLATE
[3] = Test System: AMES SALMONELLA TYPHIMURIUM, Strain/Indicator: TA98, Metabolic Activation: NONE, Method: PREINCUBATION
[4] = Test System: AMES SALMONELLA TYPHIMURIUM, Strain/Indicator: TA100, Metabolic Activation: NONE, Method: PREINCUBATION
[5] = Test System: AMES SALMONELLA TYPHIMURIUM, Strain/Indicator: TA1535, Metabolic Activation: NONE, Method: PREINCUBATION
[6] = Test System: AMES SALMONELLA TYPHIMURIUM, Strain/Indicator: TA1537, Metabolic Activation: NONE, Method: PREINCUBATION

Measured: mutagenic call

C1=Cc2ccc3nc4ccc5ccccc5c4cc3c2CC1
active: Test System: AMES SALMONELLA TYPHIMURIUM, Strain/Indicator: TA98, Metabolic Activation: GUINEA PIG, LIVER, S-9, 3-METHYLCHOLANTHRENE, Method: STANDARD PLATE active; positive | Test System: AMES SALMONELLA TYPHIMURIUM, Strain/Indicator: TA100, Metabolic Activation: GUINEA PIG, LIVER, S-9, 3-METHYLCHOLANTHRENE, Method: STANDARD PLATE active; positive

CCCCCCC[CH2][Sn]([Cl])([Cl])[CH2]CCCCCCC
inactive: Test System: CHINESE HAMSTER V-79, Strain/Indicator: V-79/8-AZAGUANINE, Metabolic Activation: RAT HEPATOCYTES inactive; negative
active: Test System: CHINESE HAMSTER V-79, Strain/Indicator: V-79/8-AZAGUANINE, Metabolic Activation: NONE active; positive

ClCc1ccc2ccc3cc4ccccc4c4ccc1c2c34
inactive: [1] inactive; negative | [2] inactive; negative

COc1nsc2ccc(OCC3CO3)cc12 (stereo not given)
active: [2] active; positive

Nc1ccc(CC(=O)O)cc1
active: Test System: AMES SALMONELLA TYPHIMURIUM, Strain/Indicator: TA98, Metabolic Activation: RAT, LIVER, S-9, Method: STANDARD PLATE active; positive
inactive: [1] inactive; negative

CC(CO)(CO)CO
inactive: [3] inactive; negative | Test System: AMES SALMONELLA TYPHIMURIUM, Strain/Indicator: TA98, Metabolic Activation: RAT LIVER S-9, PHENOBARBITAL AND BETA-NAPHTHOFLAVONE, Method: PREINCUBATION inactive; negative | [4] inactive; negative | Test System: AMES SALMONELLA TYPHIMURIUM, Strain/Indicator: TA100, Metabolic Activation: RAT LIVER S-9, PHENOBARBITAL AND BETA-NAPHTHOFLAVONE, Method: PREINCUBATION inactive; negative | [5] inactive; negative | Test System: AMES SALMONELLA TYPHIMURIUM, Strain/Indicator: TA1535, Metabolic Activation: RAT LIVER S-9, PHENOBARBITAL AND BETA-NAPHTHOFLAVONE, Method: PREINCUBATION inactive; negative | [6] inactive; negative | Test System: AMES SALMONELLA TYPHIMURIUM, Strain/Indicator: TA1537, Metabolic Activation: RAT LIVER S-9, PHENOBARBITAL AND BETA-NAPHTHOFLAVONE, Method: PREINCUBATION inactive; negative | Test System: E.COLI, Strain/Indicator: WP2UVRA/PKM101, Metabolic Activation: NONE, Method: PREINCUBATION inactive; negative | Test System: E.COLI, Strain/Indicator: WP2UVRA/PKM101, Metabolic Activation: RAT LIVER S-9, PHENOBARBITAL AND BETA-NAPHTHOFLAVONE, Method: PREINCUBATION inactive; negative

C=C1/C(=C\C=C2/CCC[C@]3(C)[C@@H]([C@H](C)/C=C/[C@@H](O)C4CC4)CC[C@@H]23)C[C@@H](O)C[C@@H]1O
inactive: [3] inactive; negative | Test System: AMES SALMONELLA TYPHIMURIUM, Strain/Indicator: TA98, Metabolic Activation: S-9, Method: PREINCUBATION inactive; negative | [4] inactive; negative | Test System: AMES SALMONELLA TYPHIMURIUM, Strain/Indicator: TA100, Metabolic Activation: S-9, Method: PREINCUBATION inactive; negative | [5] inactive; negative | Test System: AMES SALMONELLA TYPHIMURIUM, Strain/Indicator: TA1535, Metabolic Activation: S-9, Method: PREINCUBATION inactive; negative | [6] inactive; negative | Test System: AMES SALMONELLA TYPHIMURIUM, Strain/Indicator: TA1537, Metabolic Activation: S-9, Method: PREINCUBATION inactive; negative | Test System: E. COLI, Strain/Indicator: WP2 UVRA, Metabolic Activation: NONE, Method: PREINCUBATION inactive; negative | Test System: E. COLI, Strain/Indicator: WP2 UVRA, Metabolic Activation: S-9, Method: PREINCUBATION inactive; negative

Nc1cccc([N+](=O)[O-])c1CO
inactive: [3] inactive; negative | Test System: AMES SALMONELLA TYPHIMURIUM, Strain/Indicator: TA98, Metabolic Activation: RAT, LIVER, S-9, PHENOBARBITAL AND 5,6-BENZOFLAVONE, Method: PREINCUBATION inactive; negative | [4] inactive; negative | Test System: AMES SALMONELLA TYPHIMURIUM, Strain/Indicator: TA100, Metabolic Activation: RAT, LIVER, S-9, PHENOBARBITAL AND 5,6-BENZOFLAVONE, Method: PREINCUBATION inactive; negative

CC1(C)CC(C(=O)O)C(C)(C)N1[O] (stereo not given)
inactive: [1] inactive; negative | [2] inactive; negative | Test System: AMES SALMONELLA TYPHIMURIUM, Strain/Indicator: TA102, Metabolic Activation: NONE, Method: STANDARD PLATE inactive; negative | Test System: AMES SALMONELLA TYPHIMURIUM, Strain/Indicator: TA102, Metabolic Activation: XANTHINE OXIDASE, Method: STANDARD PLATE inactive; negative | Test System: AMES SALMONELLA TYPHIMURIUM, Strain/Indicator: TA104, Metabolic Activation: NONE, Method: STANDARD PLATE inactive; negative | Test System: AMES SALMONELLA TYPHIMURIUM, Strain/Indicator: TA104, Metabolic Activation: XANTHINE OXIDASE, Method: STANDARD PLATE inactive; negative

C=CCS(=O)(=O)CC=C
inactive: End Point: In vivo micronucleus, Test System: Peripheral blood reticulocytes, Species: Mouse, Strain/Sex: F1 (Big Blue x A/J) transgenic/Male and female, Route: Oral inactive; negative

O=S(=O)(O)c1ccc(O)c2ncccc12
active: Test System: AMES SALMONELLA TYPHIMURIUM, Strain/Indicator: TA98, Metabolic Activation: RAT, LIVER, S-9, Method: PREINCUBATION active; positive | Test System: AMES SALMONELLA TYPHIMURIUM, Strain/Indicator: TA100, Metabolic Activation: RAT, LIVER, S-9, Method: PREINCUBATION active; positive
inactive: [3] inactive; negative | [4] inactive; negative

C=CCOc1ccccc1OCC(O)CN(N=O)C(C)C (stereo not given)
inactive: Test System: CHINESE HAMSTER V-79, Strain/Indicator: V-79/6-THIOGUANINE, Metabolic Activation: NONE, Method: REPLATING inactive; negative | Test System: CHINESE HAMSTER V-79, Strain/Indicator: V-79/OUABAIN, Metabolic Activation: NONE inactive; negative | Test System: CHINESE HAMSTER V-79, Strain/Indicator: V-79/OUABAIN, Metabolic Activation: RAT, HEPATOCYTES inactive; negative
active: Test System: CHINESE HAMSTER V-79, Strain/Indicator: V-79/6-THIOGUANINE, Metabolic Activation: RAT, HEPATOCYTES, Method: REPLATING active; positive | Test System: UDS HUMAN HEPATOCYTES, Strain/Indicator: THY INCORP, Metabolic Activation: NONE, Method: AUTORADIOGRAPHY active; positive | Test System: UDS RAT HEPATOCYTES, Strain/Indicator: THY INCORP, Metabolic Activation: NONE, Method: AUTORADIOGRAPHY active; positive

O=C(c1ccccc1)n1ncc(Cl)c(Cl)c1=O
inactive: [1] inactive; negative | Test System: AMES SALMONELLA TYPHIMURIUM, Strain/Indicator: TA98, Metabolic Activation: RAT, LIVER, S-9, AROCLOR 1254, Method: STANDARD PLATE inactive; negative | [2] inactive; negative | Test System: AMES SALMONELLA TYPHIMURIUM, Strain/Indicator: TA100, Metabolic Activation: RAT, LIVER, S-9, AROCLOR 1254, Method: STANDARD PLATE inactive; negative | Test System: AMES SALMONELLA TYPHIMURIUM, Strain/Indicator: TA1535, Metabolic Activation: NONE, Method: STANDARD PLATE inactive; negative | Test System: AMES SALMONELLA TYPHIMURIUM, Strain/Indicator: TA1535, Metabolic Activation: RAT, LIVER, S-9, AROCLOR 1254, Method: STANDARD PLATE inactive; negative | Test System: AMES SALMONELLA TYPHIMURIUM, Strain/Indicator: TA1537, Metabolic Activation: NONE, Method: STANDARD PLATE inactive; negative | Test System: AMES SALMONELLA TYPHIMURIUM, Strain/Indicator: TA1537, Metabolic Activation: RAT, LIVER, S-9, AROCLOR 1254, Method: STANDARD PLATE inactive; negative

CN=c1ccc2nc3ccc(N)cc3sc-2c1
active: Test System: Ames Salmonella typhimurium, Strain/Indicator: TA98, Metabolic Activation: None, Method: Preincubation active; positive | Test System: Ames Salmonella typhimurium, Strain/Indicator: TA98, Metabolic Activation: Rat, Liver, S-9, Aroclor 1254 (10%), Method: Preincubation active; positive | Test System: Ames Salmonella typhimurium, Strain/Indicator: TA100, Metabolic Activation: None, Method: Preincubation active; positive | Test System: Ames Salmonella typhimurium, Strain/Indicator: TA100, Metabolic Activation: Rat, Liver, S-9, Aroclor 1254 (10%), Method: Preincubation active; positive | Test System: E. coli, Strain/Indicator: WPM uvrA/pKM101, Metabolic Activation: None, Method: Preincubation active; positive | Test System: E. coli, Strain/Indicator: WPM uvrA/pKM101, Metabolic Activation: Rat, Liver, S-9, Aroclor 1254 (10%), Method: Preincubation active; positive

O=C(O)CCc1c[nH]c2ccccc12
inactive: [4] inactive; negative
